Experimental data: patent US10426772B2, “Use of ergot alkaloids as an anthelmintic agent” (priority 2016, dated 2019)
Entries after “also recorded” stand apart in the source; their conditions may differ. Read-outs that look alike come from different tables or passages of the source.

How the values were obtained:
Sm.5HTR [1] = biological target: Sm.5HTR (Schistosoma mansoni, UniProt A0A173FEI8); assay: cell-based; settings: for antagonist activity at Sm.5HTR, in words: FIG. 18B
Protocol: HEK293 cells (ATCC CRL-1573.3) were cultured in growth media consisting of DMEM supplemented with GlutaMAX (Gibco cat #10566016)+10% heat inactivated fetal bovine serum and penicillin-streptomycin (100 units/mL, ThermoFisher). Stable cell lines for the pGloSensor-22F cAMP Plasmid (Promega) and schistosome 5HTRs in pcDNA3.1(−) were selected with hygromycin (200 μg/mL) and G418 (400 μg/mL). The correct identity of each stably expressed sequence was verified by isolating total RNA from each stable line (TRIzol Reagent, Ambion) and amplifying the sequence of interest with gene specific primers flanking the 5′ and 3′ regions of the cds (SuperScript® III One-Step RT-PCR System, Invitrogen). PCR products were ligated into a TA cloning vector (pGEM-T Easy, Promega) and sequenced.
HEK293 lines stably expressing both the 22F cAMP sensor and Sm.5HTR were cultured in growth media supplemented with 10% dialyzed FRS. For cAMP assays in 96 well format, cells cultured in T-75 flasks were trypsinized (TrypLE Express, Gibco) and plated in solid white 96 well plates (Costar cat #3917) the day prior to assay at a density of 2.5×10^4 cells/well. The following day media was removed and replaced with assay buffer consisting of HBSS buffered with HEPES (20 mM, pH 7.4)+BSA (0.1% w/v) and D-luciferin sodium salt (1 mg/mL, Gold Biotechnology). Plates were equilibrated at room temperature for 1 hour, at which point 3-Isobutyl-1-methylxanthine (IBMX 200 μM, Sigma Aldrich) was added. Plates were equilibrated a further 30 minutes prior to test compound addition. […] Readings performed in 384 well format were modified so that cells were assayed in suspension. Cells were grown to 70% confluence in T-75 flasks, trypsinized and pelleted (300 RCF×5 minutes). Media was removed and cells were resuspended in 25 mL assay buffer supplemented with IBMX (200 μM). A 96 channel semi-automated pipet (Eppendorf epMotion 96) delivered 55 μL of cell suspension per well (5000 cells/well) into solid white 384 plates (Corning 3574).

Hs.5HT7R = biological target: T1, Hs.5HT7R (Homo sapiens, UniProt P34969); assay: GloSensor cAMP assay, HEK293 cells transiently transfected with Hs.5HT7R; type: cell-based
T1 construct: host or cells: HEK293 (ATCC CRL-1573.3), transient, pCS2(−), co-transfected with GloSensor
Protocol: (§1) HEK293 cells (ATCC CRL-1573.3) were cultured in DMEM supplemented with 10% fetal bovine serum (FBS), penicillin (100 units/mL), streptomycin (100 μg/mL), and L-glutamine (290 μg/mL). Cells were transiently transfected (ViaFect, Promega) as per the manufacturer's protocol at a density of 2×10^6 cells per T-25 cell-culture flask. Cells were transfected with plasmids encoding GloSensor (Promega) and either Sm.5HTR, (Smp_126730, GenBank accession number KF444051.1) or Sm.5HTRL (KX150867), both GPCRs being codon optimized for mammalian expression, or Hs.5HT7a (GenBank accession number NM_000872.4, R&D Systems) subcloned into pCS2(−). Cell culture reagents were from Invitrogen. Epitope tagged constructs were used to verify expression, and untagged constructs used for all luminescence assays.
(§2) For assays performed on adherent cells, HEK-293 cells were transferred one day post transfection to 96 well, solid white plates (Corning, cat #3917) coated with 0.01% poly-L-lysine (Sigma Aldrich) at a density of 5×10^4 cells/well in DMEM supplemented with 1% dialyzed FBS (Gibco). After overnight culture (37° C./5% CO2), media was decanted and replaced with 100 μL/well HBSS supplemented with 0.1% BSA, 20 mM HEPES (pH 7.4) and GloSensor™ reagent. Plates were allowed to equilibrate at room temperature for two hours prior to performing luminescence assays (GloMax-Multi Detection System plate reader, Promega). Conditions for individual assays were described as per figure legends. The standard assay to detect changes in cAMP utilized the F22 sensor in media supplemented with IBMX (200 μM). Ligands were added at a concentration of 20× per well for experiments (i.e., 5 μl of drug solution added to 100 μL of cells). […] For the resazurin reduction assay for cellular viability, cells were incubated with resazurin (final concentration, 10 μM) and tested ligands with fluorescence measurements (560 nm excitation/590 nm emission) made at 1.5 hours intervals.
(§3) The protocol for screening is shown schematically in FIG. 5A. HEK293 cells transiently transfected with either the human 5HT7 receptor (Hs.5HT7R) or the schistosome receptor (Sm.5HTR) were exposed to test ligands in a 96-well plate format. […] Luminescence was then read at a fixed time point (t=60 minutes, FIG. 5A). Hits were assigned as compounds that evoked a ≥50% decrease in luminescence output at the fixed time sampling point (FIG. 5B).

[2] = test system: S. mansoni schistosomules; assay: Schistosomule contractility assay; type: cell-based; settings: Schistosoma mansoni, read-out: IC50, inhibition of 5-HT evoked contractions
Protocol: FIGS. 14A-14F. […] Effects of selected ligands on schistosomules. […] A contractile cycle is defined when a deviation of ≥20% of the average body length (dashed lines) occurs.
Biomphalaria glabrata (M-line) snails exposed to Schistosoma mansoni miracidia (Strain PR-1) were obtained from BEI Resources (Cat. number NR-21961) and cercaria were shed following exposure to light (1.5 hours). Cercaria were manually transformed into schistosomula by vortexing (3×45 seconds, each separated by 3 minutes on ice) and tails were removed by gradient centrifugation (24 mL Percoll, 4 mL 10×EMEM, 1.5 ml penicillin-streptomycin, 1 mL of 1M HEPES in 0.85% NaCl, 9.5 ml distilled water) at 500 g/15 minutes at 4° C. Supernatant containing tails was discarded, and schistosomules were resuspended in Basch media and incubated (37° C., 5% CO2) overnight before conducting mobility assays. For contractility experiments, somules were incubated in 5-HT free Basch media to resolve a basal contractility rate. […] Schistosomules were incubated in 24 well plates (about 200 schistosomules/0.5 mL media per well) for 30 minutes (37° C./5% CO2) prior to acquiring videos of schistosome movement (1 minute recordings/well) using a Nikon Coolpix 5700 camera affixed to a Nikon Eclipse TS100 microscope (10× objective). The WrmTrck plugin for ImageJ was used to quantify worm mobility (El-Shehabi et al., 2012). Briefly, the major axis of each schistosomule body length was extracted from the raw output of WrmTrck and an average length was determined for the duration of the recording. Contractions were quantified by determining the number of episodes during which the worm body length deviated from the average by over 20%. S. mansoni protocols were approved by the Iowa State University Institutional Biosafety Committee.

Sm.5HTR [3] = biological target: Sm.5HTR (Schistosoma mansoni, UniProt G4V5G4); type: cell-based; settings: for activity at Sm.5HTR, in words: antagonist screen, FIG. 7
Protocol: as §1, §2, §3

adult schistosomes = assay: Egg laying assay, adult schistosome pairs in vitro; type: cell-based, Schistosoma mansoni; settings: serotonin 100 μM, forskolin 100 μM, LSD 10 μM, nuciferine 10 μM, ergotamine 5 μM (FIG. 19F); eggs per worm pair/day over five days
From the text: Female Swiss Webster mice infected with S. mansoni cerceria (NMRI strain) were sacrificed 49 days post infection by CO2 euthanasia. Adult schistosomes were recovered by perfusion with a solution of 0.85% sodium chloride+0.75% sodium citrate and dissection of the mesenteric vasculature. Harvested schistosomes were washed in RPMI 1640 Medium with GlutaMAX+5% heat inactivated FBS (Gibco) and Penicillin-Streptomycin (final concentration 100 units/mL, ThermoFisher cat #15140122).
For egg laying assays, adult schistosomes were transferred to 24 well plates the day after harvesting from mice (5 worm pairs in 2 mL media per well). Eggs were counted under a stereomicroscope daily, after which worms were transferred to a new well with fresh drug containing media. Egg counts were recorded for five days, and data processed as the mean number of eggs laid per worm pair/day. Measurements of egg dimensions were quantified using the “analyze>measure” function in ImageJ to record the length and width of individual eggs.

Sm.5HTRL = Sm.5HTRL (Schistosoma mansoni, UniProt A0A173FEI8); assay: GloSensor cAMP assay, HEK293 cells transiently transfected with Sm.5HTRL; type: cell-based; settings: antagonists 10 μM; 5-HT EC80 dose 0.8 μM (FIG. 8)
Protocol: as §1, §2

[4] = HEK293, agonist read, 45 minutes, read-out: Sm.5HTR Emax
[5] = antagonism of 5-HT evoked cAMP, FIGS. 7, 12, 13

Chain of Sm.5HTR (Schistosoma mansoni, UniProt G4V5G4) (G4V5G4 entry or part of it): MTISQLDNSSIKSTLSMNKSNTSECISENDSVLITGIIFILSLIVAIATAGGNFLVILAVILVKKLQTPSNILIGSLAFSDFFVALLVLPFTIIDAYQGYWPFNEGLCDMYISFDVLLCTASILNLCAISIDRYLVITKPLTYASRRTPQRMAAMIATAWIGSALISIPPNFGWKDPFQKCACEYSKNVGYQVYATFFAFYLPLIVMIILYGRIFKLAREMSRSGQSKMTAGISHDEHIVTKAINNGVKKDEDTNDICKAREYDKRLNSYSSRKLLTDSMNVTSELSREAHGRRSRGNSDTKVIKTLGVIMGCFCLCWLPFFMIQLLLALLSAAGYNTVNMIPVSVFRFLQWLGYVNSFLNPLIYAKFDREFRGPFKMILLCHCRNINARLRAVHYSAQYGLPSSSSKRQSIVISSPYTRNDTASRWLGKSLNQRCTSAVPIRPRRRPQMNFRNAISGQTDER
Chain of Sm.5HTR (Schistosoma mansoni, UniProt A0A173FEI8) (A0A173FEI8 entry or part of it): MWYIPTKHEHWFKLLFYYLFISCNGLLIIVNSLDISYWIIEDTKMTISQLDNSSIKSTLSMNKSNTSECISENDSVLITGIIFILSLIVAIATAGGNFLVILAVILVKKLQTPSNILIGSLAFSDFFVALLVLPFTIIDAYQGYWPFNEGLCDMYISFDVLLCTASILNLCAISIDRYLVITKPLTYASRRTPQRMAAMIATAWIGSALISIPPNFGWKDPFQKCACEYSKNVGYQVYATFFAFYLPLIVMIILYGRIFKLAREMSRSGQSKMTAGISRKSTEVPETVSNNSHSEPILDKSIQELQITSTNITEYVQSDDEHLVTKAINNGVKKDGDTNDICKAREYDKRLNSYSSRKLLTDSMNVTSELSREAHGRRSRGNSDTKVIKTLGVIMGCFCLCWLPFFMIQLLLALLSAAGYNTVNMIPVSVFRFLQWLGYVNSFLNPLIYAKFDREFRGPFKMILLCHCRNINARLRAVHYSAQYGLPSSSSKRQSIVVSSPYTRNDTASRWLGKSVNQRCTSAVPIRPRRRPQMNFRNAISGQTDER
T1 sequence (P34969 1-445 isoform P34969-2): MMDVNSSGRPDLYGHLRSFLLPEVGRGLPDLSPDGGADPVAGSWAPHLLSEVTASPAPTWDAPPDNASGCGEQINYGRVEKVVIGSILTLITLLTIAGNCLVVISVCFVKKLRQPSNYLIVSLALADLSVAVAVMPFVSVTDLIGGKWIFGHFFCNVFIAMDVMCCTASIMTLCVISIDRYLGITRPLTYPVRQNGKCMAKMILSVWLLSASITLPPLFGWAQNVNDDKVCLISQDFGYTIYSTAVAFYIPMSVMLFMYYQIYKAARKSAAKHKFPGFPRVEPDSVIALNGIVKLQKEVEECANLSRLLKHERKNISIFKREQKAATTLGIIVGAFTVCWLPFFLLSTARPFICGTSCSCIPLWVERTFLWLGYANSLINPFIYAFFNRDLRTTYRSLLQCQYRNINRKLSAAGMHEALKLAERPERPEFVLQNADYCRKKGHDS
Chain of Sm.5HTRL (A0A173FEI8 entry or part of it): as the sequence (A0A173FEI8 entry or part of it) above

C[C@@H](CO)NC(=O)[C@@H]1C=C2c3cccc4[nH]cc(c34)C[C@H]2N(C)C1 [ergometrine]
Emax (Sm.5HTR [1]; [4]): 61 ± 4%

COc1ccc2cc1Oc1ccc(cc1)C[C@H]1c3cc(c(OC)cc3CCN1C)Oc1c(OC)c(OC)cc3c1[C@H](C2)N(C)CC3 [tetrandrine]
potency (IC50) at Hs.5HT7R, lower right quadrant of FIG. 13 (Hs.5HT7R; inhibition of cAMP generation): supra-μM potency | IC50 [2]: ≤ 1000 nM | potency (IC50) at Sm.5HTR, lower right quadrant of FIG. 13 (Sm.5HTR [3]; inhibition of cAMP generation): sub-μM potency

C=C[C@@]1(C)CC(=O)[C@]2(O)[C@@]3(C)[C@@H](O)CCC(C)(C)[C@@H]3[C@H](O)[C@H](OC(C)=O)[C@@]2(C)O1 [forskolin]
decrease of egg laying (adult schistosomes): 62%

CC1CCN(CC[C@H]2CCCN2S(=O)(=O)c2cccc(O)c2)CC1 [SB269970]
activity at Sm.5HTR, in words (Sm.5HTR [3]): modest effects on Sm.5HTR | activity at Sm.5HTR, in words (Sm.5HTR [3]; listed as SB 269970): completely lacked activity at Sm.5HTR

O=S(=O)(c1ccccc1)c1cnc2c(N3CCNCC3)cccc2c1 [SB742457]
inhibition of Hs.5HT7R, in words (Hs.5HT7R; FIG. 7): potent inhibitors of Hs.5HT7R | activity at Sm.5HTR, in words (Sm.5HTR [3]): completely lacked activity at Sm.5HTR; also recorded: modest effects on Sm.5HTR

COc1ccc2cc3[n+](cc2c1OC)CCc1cc2c(cc1-3)OCO2 [berberine]
selectivity Sm.5HTR versus Hs.5HT7R (IC50 (Hs.5HT7R)/IC50 (Sm.5HTR)), in words (Sm.5HTR [3]; [5]): decreased potency and selectivity for Sm.5HTR

CNCC[C@@H](Oc1ccccc1C)c1ccccc1 [atomoxetine]
inhibition of 5-HT evoked cAMP generation through Sm.5HTRL (Sm.5HTRL): inhibited 5-HT evoked cAMP generation through Sm.5HTRL | selectivity Sm.5HTR versus Hs.5HT7R (IC50 (Hs.5HT7R)/IC50 (Sm.5HTR)), in words (Sm.5HTR [3]): clear selectivity for Sm.5HTR; also recorded: preferential selectivity toward Sm.5HTR

COc1cc2c(cc1OC)-c1cc3ccc(OC)c(OC)c3c[n+]1CC2 [palmatine]
selectivity Sm.5HTR versus Hs.5HT7R (IC50 (Hs.5HT7R)/IC50 (Sm.5HTR)), in words (Sm.5HTR [3]; [5]): decreased potency and selectivity for Sm.5HTR

CCN(CC)C(=O)N[C@H]1C[C@@H]2c3cccc4[nH]cc(c34)C[C@H]2N(C)C1 [terguride]
IC50 (Sm.5HTR [1]; 5-HT 500 nM, read-out: Sm.5HTR IC50 (antagonist)): 400 ± 50 nM | agonist activity at Sm.5HTR, in words (Sm.5HTR [1]; FIG. 18C): completely eliminates agonist activity

COc1cc2nc(N(C)CCCNC(=O)C3CCCO3)nc(N)c2cc1OC (stereo not shown) [alfuzosin]
inhibition of 5-HT evoked cAMP generation through Sm.5HTRL (Sm.5HTRL): inhibited 5-HT evoked cAMP generation through Sm.5HTRL | selectivity Sm.5HTR versus Hs.5HT7R (IC50 (Hs.5HT7R)/IC50 (Sm.5HTR)), in words (Sm.5HTR [3]; [5]): clear selectivity for Sm.5HTR

CCN(CC)C(=O)[C@@H]1C=C2c3cccc4[nH]cc(c34)C[C@H]2N(C)C1 [LSD, lysergic acid diethylamide]
EC50 (Sm.5HTR [1]): 250 ± 150 nM | Emax (Sm.5HTR [1]; HEK293, read-out: Sm.5HTR Emax): 40 ± 26% | decrease of egg laying (adult schistosomes): no effect | inhibition of 5-HT evoked cAMP generation at higher concentrations (Sm.5HTR [3]; >10 μM): almost complete inhibition | agonist efficacy at Sm.5HTR, in words (Sm.5HTR [3]; FIG. 10A): no efficacy | Kb (Sm.5HTR [3]; antagonism of 5-HT evoked cAMP accumulation, FIG. 10F, read-out: affinity constants (KB), Schild regression analysis): 629 nM | nature of antagonism: right-shift in the 5-HT dose-response relationship (Sm.5HTR [3]; increasing doses of ligand, FIGS. 10B-D): competitive antagonism

COc1cc2c3c(c1OC)-c1ccccc1C[C@H]3N(C)CC2 [nuciferine]
decrease of egg laying (adult schistosomes): no effect

CCN1CCCC1CNC(=O)c1cc(S(=O)(=O)CC)c(N)cc1OC (stereo not shown) [amisulpiride]
activity at Sm.5HTR, in words (Sm.5HTR [3]): modest effects on Sm.5HTR

CNCCC(Oc1ccc(C(F)(F)F)cc1)c1ccccc1 (stereo not shown) [fluoxetine]
selectivity Sm.5HTR versus Hs.5HT7R (IC50 (Hs.5HT7R)/IC50 (Sm.5HTR)), in words (Sm.5HTR [3]): preferential selectivity toward Sm.5HTR

CN1C[C@H](C(=O)N[C@]2(C)O[C@@]3(O)[C@@H]4CCCN4C(=O)[C@H](Cc4ccccc4)N3C2=O)C[C@@H]2c3cccc4[nH]cc(c34)C[C@H]21 [dihydroergotamine]
Emax (Sm.5HTR [1]; HEK293, read-out: Sm.5HTR Emax): 103 ± 11% | agonist efficacy at Sm.5HTR, in words (Sm.5HTR [3]; FIG. 10A): partial agonism | EC50 (Sm.5HTR [3]; FIG. 10A, read-out: EC50, agonist activity at Sm.5HTR): 315 nM

CC(C)[C@@]1(NC(=O)[C@@H]2C[C@@H]3c4cccc5[nH]cc(c45)C[C@H]3N(C)C2)O[C@@]2(O)[C@@H]3CCCN3C(=O)[C@H](Cc3ccccc3)N2C1=O [dihydroergocristine]
antagonist activity at Sm.5HTR, in words (Sm.5HTR [1]): is an antagonist | Emax (Sm.5HTR [1]; [4]): 22 ± 2%

CC(C)C[C@H]1C(=O)N2CCC[C@H]2[C@]2(O)O[C@](NC(=O)[C@@H]3C=C4c5cccc6[nH]cc(c56)C[C@H]4N(C)C3)(C(C)C)C(=O)N12 [α-ergocryptine]
antagonist activity at Sm.5HTR, in words (Sm.5HTR [1]): loss of antagonist activity | Sm.5HTR Emax (Sm.5HTR [1]; agonist read, 45 minutes): negligible activity
